Assay results taken from patent US20230293511A1, “Ophthalmic Compositions and Uses Thereof” (priority 2022, published 2023).
Read-outs that look alike come from different tables or passages of the source.

System: patients with Fuchs Corneal Dystrophy (corneal edema)
Type: in vivo, human
Conditions: for BCVA (best corrected visual acuity) improvement: netarsudil QD
Text: FIG. 1 is a graphic representation of the study described in Example 6.
A Randomized, Open-Label, Parallel-Group Study of Two Dosing Regimens of Netarsudil in Patients with Fuchs Corneal Dystrophy
Fuchs Corneal Dystrophy (FCD) is a slowly progressive corneal disease, and is the most common indication for corneal transplants worldwide. A typical patient presents with blurred vision, glare, and a hazy cornea from corneal edema. The only definitive treatment option to restore vision is surgery. There is a large unmet need for pharmacologic alternatives to surgery
Purpose of this study: evaluate the therapeutic potential of two dosing regimens of netarsudil, a Rho kinase inhibitor, to reduce corneal edema and improve visual acuity in patients with FCD. […] Complete resolution of edema in 12.5% of patients at Week 4 (BID+QD) (FIG. 2). • d. 25% of patients gained letters from baseline in BCVA at Week 4 (BID+QD) (FIG. 4). • e. […] Improvements in validated patient reported outcome questionnaire shown at all timepoints with netarsudil QD dosing (FIG. 5). • g. […] Most common ocular TEAE was hyperemia accounting for 3/9 and 6/17 total ocular TEAE in the QD and BID groups, respectively. • i. Reticular edema developed in 1 patient in BID group, which resolved with treatment discontinuation.

reticular edema developed (human, in vivo): 1 patient
Compound: Cc1ccc(C(=O)OCc2ccc([C@@H](CN)C(=O)Nc3ccc4cnccc4c3)cc2)c(C)c1 [netarsudil, Netarsudil]
tolerability (human, in vivo): well tolerated
BCVA (best corrected visual acuity) improvement (week 2): 5.0 letters
BCVA (best corrected visual acuity) improvement (week 4): 3.2 letters
patients with complete resolution of edema (week 4, BID+QD): 12.5%
patients who gained letters from baseline in BCVA (week 4, overall (BID+QD)): 25%
